In paper PMC4264749, “Phlebotomy Treatment for Elimination of Perfluoroalkyl Acids in a Highly Exposed Family: A Retrospective Case-Series” (PLoS ONE, 2014):
Read-outs that look alike come from different tables or passages of the source.

Legend:
[1] = Apparent elimination half-life (HLapp) and phlebotomy efficiency coefficient in treated family members; format: in vivo, human; settings: family members with regular phlebotomy, except parent
From the text: To evaluate the effect of phlebotomy, versus the expected rate of intrinsic elimination, we graphically and statistically compared the observed decreasing trends in each family member (fitted to a simple exponential decay model) with reference population elimination kinetics. Specifically, for the reference population of occupationally exposed retirees, we considered: i) the 95% confidence interval of the geometric mean elimination rate for each PFAA, and ii) the fastest individual rate of elimination rate among the reference population. For comparative purposes, the concentration of each PFAA in serum on the first day of the intervention was taken as time zero, and the models were forced through this starting point.
One metric that was calculated to compare the efficiency of the phlebotomy for removal of different PFAAs in each family member was termed the phlebotomy efficiency coefficient (EC). This was based on the subtractive difference between HLapp (yrs) in each treated family member and the geometric mean HLin (yrs) of the reference population according to Equation 1 . [drawing 1] (1)

[2] = design: method as in PMID 23980546; settings: urinary excretion, China, cited from earlier work
[3] = Serum PFAA concentrations in family members during intermittent phlebotomy (HPLC-MS/MS); format: in vivo, human; settings: for Serum concentration before treatment: before phlebotomy
From the text: After receiving informed consent, intermittent phlebotomy was undertaken at an overall rate (Table 2) that was equal to or less than the maximum rate of what is done for routine blood donations at the Canadian Blood Services: ∼500 ccs of whole blood every 56 days. Frequency and timing of blood removal was not consistent between family members because of their personal availability, success at each time of venesection, and compliance of each participant. […] Mineral supplementation was discussed and was taken by each participant.
All serum samples were submitted to ALS Laboratories (Edmonton, AB) for quantitative analysis of PFAAs (see Supporting Information, S1 Table). Samples were extracted by solid phase extraction and concentrations of PFHxS, PFOS, and PFOA were determined using high performance liquid chromatography/tandem mass spectrometry. Formic acid (0.1 M) along with a mixture of isotopically labeled PFAAs (Wellington Laboratories, Guelph, Ontario) were added to 1.0 mL of serum. The mixture was vortexed, sonicated, and subjected to solid phase extraction. The extract was concentrated to 100 uL and an instrument performance internal standard was added along with 200 uL of 90% 20 mM aqueous acetic acid/10% methanol. Procedural blanks were run with each set of samples, and method limits of quantification (LOQ) were 0.5 ng/mL for each analyte. For the few PFAA levels that fell below this LOQ (shown as hollow circles in Figs. 1–3), LOQ/√2 (i.e. 0.35 ng/mL) was substituted for purposes of data analysis. PFHxS, PFOS, and PFOA levels in all participating family members were >LOQ throughout the intervention except for 3 PFOS measurements out of 16 total measurements in the 3rd child and one PFOA measurement out of 9 total measurements in the […]. Written informed consent was given by participants (or parents in the case of children) for their clinical records to be used in this study.

[4] = design: method as in PMID 17805419; settings: cited from earlier work
[5] = design: method as in earlier work; settings: cited from earlier work

O=C(O)C(F)(F)C(F)(F)C(F)(F)C(F)(F)C(F)(F)C(F)(F)C(F)(F)F [PFOA, perfluorooctanoic acid]
HLapp compared with geometric mean HLin of reference population [1]: significantly shorter
HLapp ([2]; males and post-menopausal females): 2.6 years
HLapp ([2]; reproductive-aged females): 2.1 years
Serum concentration before treatment ([3]; 1st Child): 4.7 ng/mL
Serum concentration ([3]; 1st Child, sampling date 2009.10.12): 3.5 ng/mL
Serum concentration ([3]; 1st Child, sampling date 2009.12.24): 4.4 ng/mL
Serum concentration ([3]; 1st Child, sampling date 2009.6.9): 4.7 ng/mL
Serum concentration ([3]; 1st Child, sampling date 2009.9.9): 3.9 ng/mL
Serum concentration ([3]; 1st Child, sampling date 2010.10.14): 2.8 ng/mL
Serum concentration ([3]; 1st Child, sampling date 2010.1.17): 4.0 ng/mL
Serum concentration ([3]; 1st Child, sampling date 2010.2.11): 2.0 ng/mL
Serum concentration ([3]; 1st Child, sampling date 2010.4.14): 3.8 ng/mL
Serum concentration ([3]; 1st Child, sampling date 2011.12.5): 1.3 ng/mL
Serum concentration ([3]; 1st Child, sampling date 2011.5.17, LOD=0.5ng/mL): 1.8 ng/mL
Serum concentration ([3]; 1st Child, sampling date 2011.8.12, LOD=0.5ng/mL): 2.7 ng/mL
Serum concentration ([3]; 1st Child, sampling date 2012.12.28, LOD=0.5ng/mL): 1.5 ng/mL
Serum concentration ([3]; 1st Child, sampling date 2012.4.24): 2.3 ng/mL
Serum concentration ([3]; 1st Child, sampling date 2012.8.21): 1.7 ng/mL
Serum concentration ([3]; 1st Child, sampling date 2013.3.30): 1.5 ng/mL
Serum concentration ([3]; 1st Child, sampling date 2013.7.30): 1.2 ng/mL
Serum concentration before treatment ([3]; 2nd Child): 8.7 ng/mL
Serum concentration ([3]; 2nd Child, sampling date 2009.10.24): 5.0 ng/mL
Serum concentration ([3]; 2nd Child, sampling date 2009.6.6): 8.7 ng/mL
Serum concentration ([3]; 2nd Child, sampling date 2009.7.2): 7.1 ng/mL
Serum concentration ([3]; 2nd Child, sampling date 2009.7.30): 9.2 ng/mL
Serum concentration ([3]; 2nd Child, sampling date 2009.8.24): 7.4 ng/mL
Serum concentration ([3]; 2nd Child, sampling date 2009.9.27): 4.5 ng/mL
Serum concentration ([3]; 2nd Child, sampling date 2010.1.3): 4.3 ng/mL
Serum concentration ([3]; 2nd Child, sampling date 2010.2.15): 4.9 ng/mL
Serum concentration ([3]; 2nd Child, sampling date 2011.10.2): 3.7 ng/mL
Serum concentration ([3]; 2nd Child, sampling date 2011.12.24): 3.8 ng/mL
Serum concentration ([3]; 2nd Child, sampling date 2011.4.27): 3.7 ng/mL
Serum concentration ([3]; 2nd Child, sampling date 2011.8.14): 3.6 ng/mL
Serum concentration ([3]; 2nd Child, sampling date 2012.12.24): 3.0 ng/mL
Serum concentration ([3]; 2nd Child, sampling date 2012.4.6): 3.0 ng/mL
Serum concentration ([3]; 2nd Child, sampling date 2013.5.11.): 2.1 ng/mL
Serum concentration ([3]; 2nd Child, sampling date 2013.7.15): 1.9 ng/mL
Serum concentration before treatment ([3]; 3rd Child): 8.2 ng/mL
Serum concentration ([3]; 3rd Child, sampling date 2010.3.12): 6.6 ng/mL
Serum concentration ([3]; 3rd Child, sampling date 2010.5.23): 5.3 ng/mL
Serum concentration ([3]; 3rd Child, sampling date 2011.1.6): 4.2 ng/mL
Serum concentration ([3]; 3rd Child, sampling date 2011.11.26): 2.2 ng/mL
Serum concentration ([3]; 3rd Child, sampling date 2011.2.24): 3.3 ng/mL
Serum concentration ([3]; 3rd Child, sampling date 2011.4.30): 3.0 ng/mL
Serum concentration ([3]; 3rd Child, sampling date 2011.6.13): 3.2 ng/mL
Serum concentration ([3]; 3rd Child, sampling date 2011.9.27): 3.0 ng/mL
Serum concentration ([3]; 3rd Child, sampling date 2012.10.16): 2.1 ng/mL
Serum concentration ([3]; 3rd Child, sampling date 2012.1.8): 2.9 ng/mL
Serum concentration ([3]; 3rd Child, sampling date 2012.12.9): 2.5 ng/mL
Serum concentration ([3]; 3rd Child, sampling date 2012.3.4): 3.2 ng/mL
Serum concentration ([3]; 3rd Child, sampling date 2012.4.28): 3.2 ng/mL
Serum concentration ([3]; 3rd Child, sampling date 2013.2.5): 2.2 ng/mL
Serum concentration ([3]; 3rd Child, sampling date 2013.3.30): 2.2 ng/mL
Serum concentration before treatment ([3]; 4th Child): 6.8 ng/mL
Serum concentration before treatment ([3]; Average of 6 family members): 5.7 ng/mL
Serum concentration before treatment ([3]; Parent one): 3.0 ng/mL
Serum concentration ([3]; Parent one, sampling date 2009.10.11): 1.6 ng/mL
Serum concentration ([3]; Parent one, sampling date 2009.10.12): 2.1 ng/mL
Serum concentration ([3]; Parent one, sampling date 2009.11.12): 2.0 ng/mL
Serum concentration ([3]; Parent one, sampling date 2009.12.14): 2.1 ng/mL
Serum concentration ([3]; Parent one, sampling date 2009.2.2): 3.0 ng/mL
Serum concentration ([3]; Parent one, sampling date 2009.5.18): 2.5 ng/mL
Serum concentration ([3]; Parent one, sampling date 2009.6.1): 3.1 ng/mL
Serum concentration ([3]; Parent one, sampling date 2009.7.4): 2.6 ng/mL
Serum concentration ([3]; Parent one, sampling date 2009.9.1): 2.3 ng/mL
Serum concentration ([3]; Parent one, sampling date 2010.10.10): 2.2 ng/mL
Serum concentration ([3]; Parent one, sampling date 2010.1.17): 2.0 ng/mL
Serum concentration ([3]; Parent one, sampling date 2010.3.13): 2.6 ng/mL
Serum concentration ([3]; Parent one, sampling date 2011.1.6): 1.6 ng/mL
Serum concentration ([3]; Parent one, sampling date 2011.11.26): 0.9 ng/mL
Serum concentration ([3]; Parent one, sampling date 2011.2.24): 1.7 ng/mL
Serum concentration ([3]; Parent one, sampling date 2011.4.30): 1.3 ng/mL
Serum concentration ([3]; Parent one, sampling date 2011.6.22): 1.5 ng/mL
Serum concentration ([3]; Parent one, sampling date 2011.8.4): 1.4 ng/mL
Serum concentration ([3]; Parent one, sampling date 2011.9.27): 1.2 ng/mL
Serum concentration ([3]; Parent one, sampling date 2012..12.28): 1.0 ng/mL
Serum concentration ([3]; Parent one, sampling date 2012.1.14): 1.6 ng/mL
Serum concentration ([3]; Parent one, sampling date 2012.11.1): 1.2 ng/mL
Serum concentration ([3]; Parent one, sampling date 2012.3.4): 1.3 ng/mL
Serum concentration ([3]; Parent one, sampling date 2012.4.29): 1.2 ng/mL
Serum concentration ([3]; Parent one, sampling date 2012.7.8): 1.0 ng/mL
Serum concentration ([3]; Parent one, sampling date 2012.8.21): 1.2 ng/mL
Serum concentration ([3]; Parent one, sampling date 2013.10.27): 1.2 ng/mL
Serum concentration ([3]; Parent one, sampling date 2013.2.18): 1.2 ng/mL
Serum concentration ([3]; Parent one, sampling date 2013.3.30): 1.1 ng/mL
Serum concentration ([3]; Parent one, sampling date 2013.5.11): 1.0 ng/mL
Serum concentration ([3]; Parent one, sampling date 2013.7.15): 1.0 ng/mL
Serum concentration ([3]; Parent one, sampling date 2013.9.8): 0.9 ng/mL
Serum concentration before treatment ([3]; Parent two): 2.5 ng/mL
Serum concentration ([3]; Parent two, sampling date 2009.6.1): 2.5 ng/mL
Serum concentration ([3]; Parent two, sampling date 2009.7.7): 1.8 ng/mL
Serum concentration ([3]; Parent two, sampling date 2009.8.24): 1.6 ng/mL
Serum concentration ([3]; Parent two, sampling date 2010.1.3): 1.3 ng/mL
Serum concentration ([3]; Parent two, sampling date 2012.3.13): 1.3 ng/mL
Serum concentration ([3]; Parent two, sampling date 2013.1.1): 1.0 ng/mL
Serum concentration ([3]; Parent two, sampling date 2013.10.6): 0.9 ng/mL
Serum concentration ([3]; Parent two, sampling date 2013.6.22): 1.1 ng/mL
HLin of fastest eliminator in the reference population ([4]; reference population of occupationally exposed retirees (26 individuals)): 1.5 yrs
95% confidence interval of the geometric mean HLin ([4]; reference population of occupationally exposed retirees): 3.0–4.1 yrs
HLin, 95% confidence interval ([4]; serum, retirees >55 yrs, previously occupationally exposed): 3.1–4.4 yrs
95th percentile of serum concentration among Canadians ([5]; 2009–2011): 5 ng/mL
median serum concentration among Canadians [5]: 2.7 ng/mL
